Data on one compound can be found in publication PMC4627231, “Targeting the sugar metabolism of tumors with a first-in-class 6-phosphofructo-2-kinase (PFKFB4) inhibitor” (Oncotarget, 2015).

The Ki is the equilibrium dissociation constant of an inhibitor or competing ligand from its target.

The structures appear in SMILES notation.

One data set concerns the target human recombinant PFKFB4 (Homo sapiens, UniProt Q16877). Kind of data set: In vitro kinase assay with purified recombinant human PFKFB4. In kind it is biochemical. Conditions: Lineweaver-Burk analyses. As for the experimental part: (§1) Figure 1 Compound 5MPN inhibits recombinant PFKFB4 enzyme activity A. Representation of the 5MPN molecule docked in the crystal structure of rat testes PFKFB4. 5MPN is shown in thicker stick representation than the surrounding protein residues. B. Molecular structure of 5MPN (MW, 305.3 Da). In vitro kinase assays using purified recombinant human PFKFB4 were performed as described in the presence or absence of 0.1, 1 or 10 μM 5MPN. Michaelis-Menten C. and Lineweaver-Burk double reciprocal D. plots examining PFKFB4 enzyme activity as a function of F6P concentration (0 - 2000 μmol/L) are shown. E. In vitro kinase assays using purified recombinant human PFKFB3 were performed as described in the presence or absence of 0.1, 1 or 10 μM 5MPN and the Michaelis-Menten plot examining PFKFB3 enzyme activity as a function of F6P concentration (0 - 400 μmol/L) is shown. Data shown are representative of three independent experiments. […] The activity of 5MPN against 97 kinases was examined using a commercially available active-site dependent competition binding assay core service (KINOMEscanEDGE) that quantifies the capacity of test agents to compete with an immobilized, active-site directed ligand using a DNA-tagged kinase and immobilized ligand and compound.

Another data set has as its target human recombinant PFKFB3 (Homo sapiens, UniProt Q16875). Kind of data set: In vitro kinase assay with purified recombinant human PFKFB3. Conditions: 10 μM. Format: biochemical. As for the experimental part:
as §1

The test system of a further data set is recombinant PFK-1. Kind of data set: PFK-1 kinase activity. Format: biochemical. Conditions: 10 μM.
The subject of data set [1] is intracellular F2,6BP in H460 cells. As to the kind of experiment: F2,6BP measurement in H460 cells. In kind it is cell-based, human. Conditions: for [F2,6BP]: 24 hours (DMSO 6.1 ±0.2). As for the experimental part:
(§2) Cells or tissues were prepared as previously described and F2,6BP content measured using a coupled enzyme reaction following the method of Van Schaftingen et al and normalized to total cellular protein measured by the bicinchoninic acid assay (Thermo Scientific). All data are expressed as the mean ± SD of three experiments. Statistical significance was assessed by the two-sample t test (independent variable).

For another data set, the system named is ATP in H460 cells. Kind of data set: Intracellular ATP measurement. Format: cell-based, human. Conditions: 10 μM, 6-72 hours. On the procedure: Cells were lysed and intracellular ATP determined as described previously. All data are expressed as the mean ± SD of three experiments. Statistical significance was assessed by the two-sample t test (independent variable).

The subject of another data set is A549 cells. As to the kind of experiment: Viable cell count (trypan blue exclusion). Conditions: A549, 48 hours. Format: cell-based, human. On the procedure:
(§3) Viability was determined using trypan blue exclusion as previously described. Cells were incubated in 20% trypan blue (Sigma) for 5 minutes. Cells excluding trypan blue were counted using a standard hemocytometer (Hausser Scientific) to determine total numbers of viable cells. Data are expressed as mean ± SD of three experiments.

The next data set relates to H1299 cells. Kind of data set: Viable cell count (trypan blue exclusion). Format: cell-based, human. Conditions: H1299, 48 hours. On the procedure: as §3
For the next data set, the system named is H441 cells. As to the kind of experiment: Viable cell count (trypan blue exclusion). In kind it is cell-based, human. Conditions: H441, 48 hours. As for the experimental part: as §3
The subject of another data set is H460 cells. Kind of data set: Viable cell count (trypan blue exclusion). In kind it is cell-based, human. On the procedure:
as §3

For the next data set, the system named is H522 cells. As to the kind of experiment: Viable cell count (trypan blue exclusion). Format: cell-based, human. Conditions: H522, 48 hours. As for the experimental part:
as §3

The next data set deals with HCT116 cells. As to the kind of experiment: Viable cell count (trypan blue exclusion). In kind it is cell-based, human. Conditions: HCT116, 48 hours. On the procedure: as §3
The next data set has as its system LNCaP cells. As to the kind of experiment: Viable cell count (trypan blue exclusion). Conditions: 48 hours. In kind it is cell-based, human. As for the experimental part:
as §3

A further data set relates to MDA-MB-231 cells. As to the kind of experiment: Viable cell count (trypan blue exclusion). In kind it is cell-based, human. Conditions: MDA-MB-231, 48 hours. As for the experimental part:
as §3

In another data set the test system is hT/LT/Ras cells. Kind of data set: Viable cell count (trypan blue exclusion). Conditions: live cells counted at 48 hours. In kind it is cell-based, human. On the procedure:
as §3

Data set [2] relates to H460 human lung adenocarcinoma xenografts. As to the kind of experiment: H460 xenograft growth in athymic mice. Conditions: 120 mg/kg daily by gavage. In kind it is in vivo, BALB/c athymic mice. On the procedure: For xenograft studies, LLC or H460 cells collected from exponential growth phase culture were washed and resuspended in PBS. Groups of female C57BL/6 mice were injected with LLC cells (n=10 per group, s.c., 1×10^6 cells) and groups of female BALB/c athymic mice (Charles River) were injected with H460 cells (n=10 per group, s.c, 5 × 10^6 cells). Tumor masses were determined in a blinded fashion with Vernier calipers using the formula: mass (mg) = (width, mm)^2 X (length, mm)/2 as previously described. When tumor masses were 150-200 mg, mice were randomized to daily DMSO or 5MPN (in 30% Captisol, 100 μl, by gavage). Tumor measurements and body weights were followed daily. All data are expressed as the mean ± SD of two experiments. Statistical significance was assessed by the two-sample t test (independent variable).

Data set [3] has as its system intratumoral F2,6BP, LLC xenografts. As to the kind of experiment: Intratumoral F2,6BP in LLC tumors. Conditions: after 10 days of treatment, one hour after dose by gavage. Format: in vivo, C57BL/6 mice. On the procedure:
as §2
(§4) At the end of the experiment, one hour after a single dose of DMSO or 5MPN, animals were euthanized, tumors removed and sections fixed in 10% formaldehyde for immunohistochemistry or snap-frozen in liquid nitrogen for analyses. Subsets of tumor-bearing mice (n=3) were administered a single dose of either DMSO or 5MPN one hour prior to imaging then injected i.p. with 2-[^18F]-fluoro-2-deoxyglucose (FDG, 150μCi, 100 μl) and, 45 min after FDG injection, were anesthetized with 2% isoflurane in oxygen and transferred to a R-4 Rodent Scanner (CTI Concorde Microsystems) micro-positron emission tomograph to capture images as previously described. Regions of interest in the tumors and cerebellum were quantified in quadruplicate and expressed as the mean ± SD of the ratio of tumor:cerebellar FDG uptake. Animal experiments were approved by the University of Louisville Institutional Animal Care and Use Committee.

The subject of data set [4] is 2-[18F]-fluoro-2-deoxyglucose uptake by LLC xenografts. As to the kind of experiment: FDG uptake by micro-PET in LLC tumors. In kind it is in vivo, C57BL/6 mice. Conditions: 120 mg/kg by gavage, once, one hour before imaging. On the procedure:
as §4

Chain of human recombinant PFKFB4 (Q16877 whole entry): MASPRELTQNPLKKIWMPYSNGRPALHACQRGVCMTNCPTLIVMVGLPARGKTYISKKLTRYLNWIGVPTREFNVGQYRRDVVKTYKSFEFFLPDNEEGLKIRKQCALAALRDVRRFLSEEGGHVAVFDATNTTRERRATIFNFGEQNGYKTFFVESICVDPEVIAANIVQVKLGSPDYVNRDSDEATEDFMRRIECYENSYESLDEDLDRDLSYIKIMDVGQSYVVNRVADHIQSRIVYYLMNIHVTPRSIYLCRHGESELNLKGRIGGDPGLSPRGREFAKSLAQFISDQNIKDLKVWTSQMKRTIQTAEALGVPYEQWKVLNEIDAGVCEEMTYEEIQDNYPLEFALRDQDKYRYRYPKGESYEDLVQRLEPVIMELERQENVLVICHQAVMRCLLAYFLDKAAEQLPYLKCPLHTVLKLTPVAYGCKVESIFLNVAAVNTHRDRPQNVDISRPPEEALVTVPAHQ
Chain of human recombinant PFKFB3 (Q16875 whole entry): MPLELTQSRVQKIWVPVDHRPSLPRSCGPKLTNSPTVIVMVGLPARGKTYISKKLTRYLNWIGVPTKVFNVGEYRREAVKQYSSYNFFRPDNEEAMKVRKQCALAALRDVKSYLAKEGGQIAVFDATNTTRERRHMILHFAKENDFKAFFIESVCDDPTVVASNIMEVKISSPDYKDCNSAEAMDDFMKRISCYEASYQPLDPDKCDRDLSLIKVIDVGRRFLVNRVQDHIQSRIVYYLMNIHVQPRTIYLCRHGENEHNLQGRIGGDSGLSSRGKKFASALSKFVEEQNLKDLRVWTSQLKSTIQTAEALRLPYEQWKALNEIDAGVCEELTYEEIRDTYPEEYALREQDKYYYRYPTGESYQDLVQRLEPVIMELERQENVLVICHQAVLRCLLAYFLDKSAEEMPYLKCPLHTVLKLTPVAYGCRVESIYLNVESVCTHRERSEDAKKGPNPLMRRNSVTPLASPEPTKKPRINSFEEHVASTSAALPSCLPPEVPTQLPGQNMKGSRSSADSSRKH

Take `COc1cccc2c(NCCCCCO[N+](=O)[O-])ccnc12` [Compound 5MPN, 5-(n-(8-methoxy-4-quinolyl)amino)pentyl nitrate]: the mode of inhibition entry on human recombinant PFKFB4 is recorded as “competitive inhibitor of the F6P binding site”. In addition, the Ki on human recombinant PFKFB4 (F6P as substrate, read-out: Ki for 5MPN inhibition) was 8.6 ± 1.9 µM. The “inhibition of PFKFB3 kinase activity” value at human recombinant PFKFB3 is reported as “no inhibition of kinase activity”. In addition, the “inhibition of PFK-1 kinase activity” value in the data set on recombinant PFK-1 is “no inhibition of kinase activity”. Moreover, the “[F2,6BP]” value was determined as 2.3 ±0.05 pmol/mg protein in data set [1] (5μM 5MPN), 1.52 ±0.2 pmol/mg protein in data set [1] (10μM 5MPN), 0.75±0.09 pmol/mg protein in [1] (20 μM 5MPN) and 0.43 ±0.1 pmol/mg protein in data set [1] (30 μM 5MPN). Also, the “effect of PFKFB4 over-expression on the reduction in F2,6BP caused by 5MPN” value in data set [1] (Vec vs FB4, 10 μM 5MPN, 24 hours) is “reversed”. Besides, the “effect on ATP” value in the data set on ATP in H460 cells was “reduced”. Besides, the effect on proliferation result with A549 cells is recorded as “dose-dependent reduction in growth”; in the data set on H1299 cells, “dose-dependent reduction in growth”; with H441 cells, “dose-dependent reduction in growth”; with H460 cells (H460, 48 hours) it was “dose-dependent reduction in growth”; with H522 cells, “dose-dependent reduction in growth”; in the data set with HCT116 cells it was “dose-dependent reduction in growth”. Besides, the effect on proliferation result with LNCaP cells and with MDA-MB-231 cells was “dose-dependent reduction in growth” each time. In addition, the “effect of PFKFB4 over-expression on anti-proliferative effect” value in the data set on H460 cells (H460 cells transfected with PFKFB4 vs empty vector, 10μM 5MPN, 24 hours) was “protected”. Moreover, the “effect on cell growth” value in the data set with hT/LT/Ras cells is “suppressed similar to other transformed cells”. In data set [2] (H460-bearing BALB/c athymic mice), the body weight entry is given as “without affecting body weight”. Also, the tumor growth result in data set [2] (H460 xenografts in BALB/c athymic mice) was “suppressed the growth”. The “intratumoral F2,6BP” value in data set [3] was “marked reduction”. Also, the “2-[18F]-fluoro-2-deoxyglucose uptake (positron emission tomography)” value in [4] was “marked reduction”.
